A short description of series [1]: Single dose IP pharmacokinetic study in mice. It counts as in vivo, CD-1 mice. The following applies: mouse, 10 mg/kg IP, plasma at 0.5, 1, 3, 8 h. The method, then:
CD-1 mice with weights 23–25 g were purchased from Charles River Laboratories.
The animal experiments were performed at Alliance Pharma (Malvern, PA, USA) in accordance with the guide for the care and use of laboratory animals. Alliance Pharma is accredited by the Association for Assessment and Accreditation of Laboratory Animal Care (AAALAC).
The test compounds were dissolved in DMSO and then diluted to the appropriate concentration with the vehicle. For formulation we targeted the minimal amount of DMSO that could be used in combination with a formulation composed of 0.5% HPMC/0.2% Polysorbate 80. […] Blood was collected at t = 0.5, 1, 3, and 8 h and immediately spun for 3 min, the plasma was collected, and compound levels were quantified with HPLC/MS. The raw data are available in the Supplemental Information.
With the probe molecule having favorable selectivity and potency in vitro and in a cellular context, we next wanted to determine its suitability for in vivo experiments. SGC-CAMKK2-1 (5) was progressed to a single dose mouse intraperitoneal (I.P) experiment.

The target of series [2] is T1, TGFBR1 (Homo sapiens, UniProt P36897).
T1 construct: purchased Eurofins DiscoverX KINOMEscan
In words: DiscoverX KINOMEscan binding assay at 1 μM, TGFBR1. The settings on record: Compound Concentration 1000 nM, read-out: Percent Control. From the text: (§1) Supplement cells-12-00287-s001.zip/File S2. KinomeScan data for the CAMKK2 probe and negative control.xlsx, sheet "SGC-CAMKK2-1" | column: Percent Control

For series [3], the target named is T2, ZAP70 (Homo sapiens, UniProt P43403).
T2 construct: purchased Eurofins DiscoverX KINOMEscan
T2 sequence (P43403 whole entry): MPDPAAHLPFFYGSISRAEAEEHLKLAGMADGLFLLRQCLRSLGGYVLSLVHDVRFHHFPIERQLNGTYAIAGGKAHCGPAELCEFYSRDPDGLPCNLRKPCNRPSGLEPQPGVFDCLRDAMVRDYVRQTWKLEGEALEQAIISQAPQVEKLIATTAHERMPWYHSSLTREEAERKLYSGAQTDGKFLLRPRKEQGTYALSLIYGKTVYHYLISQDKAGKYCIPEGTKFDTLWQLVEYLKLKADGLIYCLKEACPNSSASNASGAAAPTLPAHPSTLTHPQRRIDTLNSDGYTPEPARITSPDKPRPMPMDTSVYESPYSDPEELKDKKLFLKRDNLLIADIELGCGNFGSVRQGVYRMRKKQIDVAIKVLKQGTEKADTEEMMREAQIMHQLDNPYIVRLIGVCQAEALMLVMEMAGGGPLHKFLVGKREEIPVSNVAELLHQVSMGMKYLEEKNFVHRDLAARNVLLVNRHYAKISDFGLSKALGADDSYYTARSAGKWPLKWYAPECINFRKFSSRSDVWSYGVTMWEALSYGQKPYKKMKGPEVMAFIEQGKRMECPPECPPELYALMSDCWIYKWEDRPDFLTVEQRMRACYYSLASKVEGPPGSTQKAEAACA
In words: DiscoverX KINOMEscan binding assay at 1 μM, ZAP70. The settings on record: Compound Concentration 1000 nM, read-out: Percent Control.
Excerpt: as §1

In series [4] the target is T3, SGK (Homo sapiens, UniProt O00141).
T3 construct: purchased Eurofins DiscoverX KINOMEscan
In words: KINOMEscan 1 μM, SGK. In kind it is binding. The settings on record: 1000 nM; Entrez SGK1; read-out: Percent Control.
Excerpt: as §1

Series [5] addresses T4, CDK2 (Homo sapiens, UniProt P24941).
T4 construct: purchased Eurofins DiscoverX KINOMEscan
In words: KINOMEscan 1 μM, CDK2. In kind it is binding. The following applies: 1000 nM; Entrez CDK2; read-out: Percent Control.
Excerpt: as §1

Series [6] addresses T5, TNNI3K (Homo sapiens, UniProt Q59H18).
T5 construct: purchased Eurofins DiscoverX KINOMEscan
In words: DiscoverX KINOMEscan binding assay at 1 μM, TNNI3K. The following applies: Compound Concentration 1000 nM, read-out: Percent Control.
Excerpt: as §1

The target of series [7] is T6, GRK7 (Homo sapiens, UniProt Q8WTQ7).
T6 construct: purchased Eurofins DiscoverX KINOMEscan
In words: KINOMEscan 1 μM, GRK7. It counts as binding. The following applies: 1000 nM; Entrez GRK7; read-out: Percent Control.
Excerpt: as §1

Series [8] deals with T7, CDC2L1 (Homo sapiens, UniProt P21127).
T7 construct: purchased Eurofins DiscoverX KINOMEscan
In words: KINOMEscan 1 μM, CDC2L1. In kind it is binding. The following applies: 1000 nM; Entrez CDK11B; read-out: Percent Control.
Excerpt: as §1

Series [9] deals with T8, PRKR (Homo sapiens, UniProt P19525).
T8 construct: purchased Eurofins DiscoverX KINOMEscan
In words: DiscoverX KINOMEscan binding assay at 1 μM, PRKR. The settings on record: PRKR (EIF2AK2); Compound Concentration 1000 nM; read-out: Percent Control.
Excerpt: as §1

Series [10] deals with T9, EGFR(T790M) (Homo sapiens, UniProt P00533, T790M).
T9 construct: purchased Eurofins DiscoverX KINOMEscan
T9 sequence (P00533 25-1210 T790M): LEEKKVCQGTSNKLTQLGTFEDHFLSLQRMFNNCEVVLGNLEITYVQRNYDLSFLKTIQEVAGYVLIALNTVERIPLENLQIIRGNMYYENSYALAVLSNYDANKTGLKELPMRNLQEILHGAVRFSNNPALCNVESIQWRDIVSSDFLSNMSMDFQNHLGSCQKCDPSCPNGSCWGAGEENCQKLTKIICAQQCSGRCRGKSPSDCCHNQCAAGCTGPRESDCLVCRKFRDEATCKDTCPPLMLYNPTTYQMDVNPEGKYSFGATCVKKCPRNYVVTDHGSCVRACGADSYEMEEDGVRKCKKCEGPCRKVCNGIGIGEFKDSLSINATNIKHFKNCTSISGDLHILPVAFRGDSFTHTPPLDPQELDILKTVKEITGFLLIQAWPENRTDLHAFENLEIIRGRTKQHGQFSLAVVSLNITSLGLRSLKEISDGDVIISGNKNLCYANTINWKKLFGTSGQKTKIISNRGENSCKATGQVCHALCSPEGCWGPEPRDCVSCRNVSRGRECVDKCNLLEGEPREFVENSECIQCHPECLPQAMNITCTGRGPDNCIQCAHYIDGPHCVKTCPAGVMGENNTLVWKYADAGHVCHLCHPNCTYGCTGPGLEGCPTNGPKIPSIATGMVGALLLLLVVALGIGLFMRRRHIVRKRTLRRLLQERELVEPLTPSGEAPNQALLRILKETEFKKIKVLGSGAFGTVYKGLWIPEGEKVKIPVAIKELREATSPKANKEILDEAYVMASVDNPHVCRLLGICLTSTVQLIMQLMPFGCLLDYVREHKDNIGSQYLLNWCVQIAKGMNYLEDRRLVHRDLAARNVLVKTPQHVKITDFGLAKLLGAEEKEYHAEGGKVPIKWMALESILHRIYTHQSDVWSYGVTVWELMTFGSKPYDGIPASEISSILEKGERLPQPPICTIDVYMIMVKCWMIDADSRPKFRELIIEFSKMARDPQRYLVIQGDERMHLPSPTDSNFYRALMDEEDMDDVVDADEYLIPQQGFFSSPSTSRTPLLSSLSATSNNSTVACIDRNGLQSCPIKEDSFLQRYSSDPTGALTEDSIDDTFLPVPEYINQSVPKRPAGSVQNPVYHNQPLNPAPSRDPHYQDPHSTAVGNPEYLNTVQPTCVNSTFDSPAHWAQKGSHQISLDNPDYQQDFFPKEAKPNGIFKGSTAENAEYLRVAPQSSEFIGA
In words: KINOMEscan 1 μM, EGFR(T790M). The following applies: 1000 nM; Entrez EGFR; read-out: Percent Control. In kind it is binding.
Excerpt: as §1

For series [11], the target named is T10, RPS6KA5(Kin.Dom.2-C-terminal) (Homo sapiens, UniProt O75582).
T10 construct: RPS6KA5(Kin.Dom.2-C-terminal); purchased Eurofins DiscoverX KINOMEscan
In words: DiscoverX KINOMEscan binding assay at 1 μM, RPS6KA5(Kin.Dom.2-C-terminal). The following applies: Compound Concentration 1000 nM, read-out: Percent Control.
Excerpt: as §1

Series [12] concerns the target T11, ITK (Homo sapiens, UniProt Q08881).
T11 construct: purchased Eurofins DiscoverX KINOMEscan
In words: KINOMEscan 1 μM, ITK. In kind it is binding. The settings on record: 1000 nM; Entrez ITK; read-out: Percent Control.
Excerpt: as §1

For series [13], the target named is T12, CSNK1A1L (Homo sapiens, UniProt Q8N752).
T12 construct: purchased Eurofins DiscoverX KINOMEscan
T12 sequence (Q8N752 whole entry): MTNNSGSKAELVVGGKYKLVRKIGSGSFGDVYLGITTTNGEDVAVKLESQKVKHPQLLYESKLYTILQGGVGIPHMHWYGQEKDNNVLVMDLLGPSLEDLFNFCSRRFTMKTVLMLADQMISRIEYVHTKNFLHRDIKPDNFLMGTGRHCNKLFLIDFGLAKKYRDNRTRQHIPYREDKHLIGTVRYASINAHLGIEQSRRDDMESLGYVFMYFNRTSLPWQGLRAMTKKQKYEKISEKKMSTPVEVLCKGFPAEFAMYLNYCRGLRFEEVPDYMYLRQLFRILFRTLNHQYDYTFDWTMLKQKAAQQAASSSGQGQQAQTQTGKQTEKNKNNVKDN
In words: KINOMEscan 1 μM, CSNK1A1L. In kind it is binding. The settings on record: 1000 nM; Entrez CSNK1A1L; read-out: Percent Control.
Excerpt: as §1

The test system of series [14] is FLT3(ITD). In words: KINOMEscan 1 μM, FLT3(ITD). In kind it is binding, human. The following applies: 1000 nM; Entrez FLT3.
Excerpt: as §1

The target in series [15] is T13, MEK5 (Homo sapiens, UniProt Q13163).
T13 construct: purchased Eurofins DiscoverX KINOMEscan
In words: KINOMEscan 1 μM, MEK5. In kind it is binding. The settings on record: 1000 nM; Entrez MAP2K5; read-out: Percent Control.
Excerpt: as §1

In series [16] the target is T14, TAOK1 (Homo sapiens, UniProt Q7L7X3).
T14 construct: purchased Eurofins DiscoverX KINOMEscan
In words: KINOMEscan at 1 μM, TAOK1. In kind it is binding. The settings on record: 1000 nM, read-out: Percent Control. An excerpt:
(§2) Supplement cells-12-00287-s001.zip/File S2. KinomeScan data for the CAMKK2 probe and negative control.xlsx, sheet "SGC-CAMKK2-1N" | column: Percent Control

Series [17] addresses T15, PHKG1 (Homo sapiens, UniProt Q16816).
T15 construct: purchased Eurofins DiscoverX KINOMEscan
In words: KINOMEscan at 1 μM, PHKG1. It counts as binding. The following applies: 1000 nM, read-out: Percent Control.
Excerpt: as §2

Series [18] addresses T16, GRK4 (Homo sapiens, UniProt P32298).
T16 construct: purchased Eurofins DiscoverX KINOMEscan
In words: KINOMEscan binding assay at 1 μM, GRK4. The following applies: Compound Concentration 1000 nM; read-out: Percent Control.
Excerpt: as §2

Series [19] has as its target T17, DRAK1 (Homo sapiens, UniProt Q9UEE5).
T17 construct: purchased Eurofins DiscoverX KINOMEscan
In words: KINOMEscan at 1 μM, DRAK1. In kind it is binding. The following applies: 1000 nM, read-out: Percent Control.
Excerpt: as §2

Series [20] deals with T18, STK33 (Homo sapiens, UniProt Q9BYT3).
T18 construct: purchased Eurofins DiscoverX KINOMEscan
In words: KINOMEscan binding assay at 1 μM, STK33. The settings on record: Compound Concentration 1000 nM; read-out: Percent Control.
Excerpt: as §2

For series [21], the target named is T19, BMPR1A (Homo sapiens, UniProt P36894).
T19 construct: purchased Eurofins DiscoverX KINOMEscan
In words: KINOMEscan at 1 μM, BMPR1A. In kind it is binding. The settings on record: 1000 nM, read-out: Percent Control.
Excerpt: as §2

In series [22] the target is T20, EGFR(L747-E749del, A750P) (Homo sapiens, UniProt P00533, A750P/DEL747-749).
T20 construct: purchased Eurofins DiscoverX KINOMEscan
In words: KINOMEscan binding assay at 1 μM, EGFR(L747-E749del, A750P). The following applies: Compound Concentration 1000 nM; read-out: Percent Control.
Excerpt: as §2

Series [23] deals with T21, FYN (Homo sapiens, UniProt P06241).
T21 construct: purchased Eurofins DiscoverX KINOMEscan
T21 sequence (P06241 whole entry): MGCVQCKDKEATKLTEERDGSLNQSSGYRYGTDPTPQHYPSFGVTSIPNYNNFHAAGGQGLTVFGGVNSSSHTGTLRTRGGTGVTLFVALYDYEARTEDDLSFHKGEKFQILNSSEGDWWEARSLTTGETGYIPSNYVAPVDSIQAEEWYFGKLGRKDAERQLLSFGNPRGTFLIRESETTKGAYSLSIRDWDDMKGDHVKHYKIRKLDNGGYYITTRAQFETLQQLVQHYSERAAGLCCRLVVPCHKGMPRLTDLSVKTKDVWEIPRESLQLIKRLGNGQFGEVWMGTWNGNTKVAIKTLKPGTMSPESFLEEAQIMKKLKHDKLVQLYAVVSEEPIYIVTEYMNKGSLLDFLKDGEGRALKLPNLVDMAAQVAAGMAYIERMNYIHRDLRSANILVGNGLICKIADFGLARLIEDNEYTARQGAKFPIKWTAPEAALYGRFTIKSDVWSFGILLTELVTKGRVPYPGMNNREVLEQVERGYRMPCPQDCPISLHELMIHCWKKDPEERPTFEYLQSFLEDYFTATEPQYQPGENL
In words: KINOMEscan at 1 μM, FYN. The following applies: 1000 nM, read-out: Percent Control. In kind it is binding.
Excerpt: as §2

For series [24], the target named is T22, PHKG2 (Homo sapiens, UniProt P15735).
T22 construct: purchased Eurofins DiscoverX KINOMEscan
In words: KINOMEscan at 1 μM, PHKG2. In kind it is binding. The following applies: 1000 nM, read-out: Percent Control.
Excerpt: as §2

In series [25] the target is T23, RSK3(Kin.Dom.1-N-terminal) (Homo sapiens, UniProt Q15349).
T23 construct: RSK3(Kin.Dom.1-N-terminal); purchased Eurofins DiscoverX KINOMEscan
T23 sequence (Q15349 1-388 limits assumed): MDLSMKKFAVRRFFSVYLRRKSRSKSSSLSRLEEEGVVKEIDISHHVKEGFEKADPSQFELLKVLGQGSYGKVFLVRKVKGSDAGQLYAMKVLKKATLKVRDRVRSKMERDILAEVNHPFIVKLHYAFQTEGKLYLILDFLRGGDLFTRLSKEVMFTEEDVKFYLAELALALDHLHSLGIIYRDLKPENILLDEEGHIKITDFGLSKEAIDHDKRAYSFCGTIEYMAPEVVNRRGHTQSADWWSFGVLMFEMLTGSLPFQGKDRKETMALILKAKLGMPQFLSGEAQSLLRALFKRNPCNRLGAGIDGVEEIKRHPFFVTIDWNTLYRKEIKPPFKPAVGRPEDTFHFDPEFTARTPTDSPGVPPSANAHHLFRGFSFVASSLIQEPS
In words: KINOMEscan binding assay at 1 μM, RSK3(Kin.Dom.1-N-terminal). The following applies: Compound Concentration 1000 nM; read-out: Percent Control.
Excerpt: as §2

The target in series [26] is T24, DYRK1A (Homo sapiens, UniProt Q13627).
T24 construct: purchased Eurofins DiscoverX KINOMEscan
In words: KINOMEscan at 1 μM, DYRK1A. It counts as binding. The settings on record: 1000 nM, read-out: Percent Control.
Excerpt: as §2

Series [27] deals with T25, EPHA5 (Homo sapiens, UniProt P54756).
T25 construct: purchased Eurofins DiscoverX KINOMEscan
In words: KINOMEscan binding assay at 1 μM, EPHA5. The settings on record: Compound Concentration 1000 nM; read-out: Percent Control.
Excerpt: as §2

Series [28] addresses T26, MLK2 (Homo sapiens, UniProt Q02779).
T26 construct: purchased Eurofins DiscoverX KINOMEscan
In words: KINOMEscan binding assay at 1 μM, MLK2. The following applies: Compound Concentration 1000 nM; read-out: Percent Control.
Excerpt: as §2

For series [29], the target named is T27, TRPM6 (Homo sapiens, UniProt Q9BX84).
T27 construct: purchased Eurofins DiscoverX KINOMEscan
T27 sequence (Q9BX84 whole entry): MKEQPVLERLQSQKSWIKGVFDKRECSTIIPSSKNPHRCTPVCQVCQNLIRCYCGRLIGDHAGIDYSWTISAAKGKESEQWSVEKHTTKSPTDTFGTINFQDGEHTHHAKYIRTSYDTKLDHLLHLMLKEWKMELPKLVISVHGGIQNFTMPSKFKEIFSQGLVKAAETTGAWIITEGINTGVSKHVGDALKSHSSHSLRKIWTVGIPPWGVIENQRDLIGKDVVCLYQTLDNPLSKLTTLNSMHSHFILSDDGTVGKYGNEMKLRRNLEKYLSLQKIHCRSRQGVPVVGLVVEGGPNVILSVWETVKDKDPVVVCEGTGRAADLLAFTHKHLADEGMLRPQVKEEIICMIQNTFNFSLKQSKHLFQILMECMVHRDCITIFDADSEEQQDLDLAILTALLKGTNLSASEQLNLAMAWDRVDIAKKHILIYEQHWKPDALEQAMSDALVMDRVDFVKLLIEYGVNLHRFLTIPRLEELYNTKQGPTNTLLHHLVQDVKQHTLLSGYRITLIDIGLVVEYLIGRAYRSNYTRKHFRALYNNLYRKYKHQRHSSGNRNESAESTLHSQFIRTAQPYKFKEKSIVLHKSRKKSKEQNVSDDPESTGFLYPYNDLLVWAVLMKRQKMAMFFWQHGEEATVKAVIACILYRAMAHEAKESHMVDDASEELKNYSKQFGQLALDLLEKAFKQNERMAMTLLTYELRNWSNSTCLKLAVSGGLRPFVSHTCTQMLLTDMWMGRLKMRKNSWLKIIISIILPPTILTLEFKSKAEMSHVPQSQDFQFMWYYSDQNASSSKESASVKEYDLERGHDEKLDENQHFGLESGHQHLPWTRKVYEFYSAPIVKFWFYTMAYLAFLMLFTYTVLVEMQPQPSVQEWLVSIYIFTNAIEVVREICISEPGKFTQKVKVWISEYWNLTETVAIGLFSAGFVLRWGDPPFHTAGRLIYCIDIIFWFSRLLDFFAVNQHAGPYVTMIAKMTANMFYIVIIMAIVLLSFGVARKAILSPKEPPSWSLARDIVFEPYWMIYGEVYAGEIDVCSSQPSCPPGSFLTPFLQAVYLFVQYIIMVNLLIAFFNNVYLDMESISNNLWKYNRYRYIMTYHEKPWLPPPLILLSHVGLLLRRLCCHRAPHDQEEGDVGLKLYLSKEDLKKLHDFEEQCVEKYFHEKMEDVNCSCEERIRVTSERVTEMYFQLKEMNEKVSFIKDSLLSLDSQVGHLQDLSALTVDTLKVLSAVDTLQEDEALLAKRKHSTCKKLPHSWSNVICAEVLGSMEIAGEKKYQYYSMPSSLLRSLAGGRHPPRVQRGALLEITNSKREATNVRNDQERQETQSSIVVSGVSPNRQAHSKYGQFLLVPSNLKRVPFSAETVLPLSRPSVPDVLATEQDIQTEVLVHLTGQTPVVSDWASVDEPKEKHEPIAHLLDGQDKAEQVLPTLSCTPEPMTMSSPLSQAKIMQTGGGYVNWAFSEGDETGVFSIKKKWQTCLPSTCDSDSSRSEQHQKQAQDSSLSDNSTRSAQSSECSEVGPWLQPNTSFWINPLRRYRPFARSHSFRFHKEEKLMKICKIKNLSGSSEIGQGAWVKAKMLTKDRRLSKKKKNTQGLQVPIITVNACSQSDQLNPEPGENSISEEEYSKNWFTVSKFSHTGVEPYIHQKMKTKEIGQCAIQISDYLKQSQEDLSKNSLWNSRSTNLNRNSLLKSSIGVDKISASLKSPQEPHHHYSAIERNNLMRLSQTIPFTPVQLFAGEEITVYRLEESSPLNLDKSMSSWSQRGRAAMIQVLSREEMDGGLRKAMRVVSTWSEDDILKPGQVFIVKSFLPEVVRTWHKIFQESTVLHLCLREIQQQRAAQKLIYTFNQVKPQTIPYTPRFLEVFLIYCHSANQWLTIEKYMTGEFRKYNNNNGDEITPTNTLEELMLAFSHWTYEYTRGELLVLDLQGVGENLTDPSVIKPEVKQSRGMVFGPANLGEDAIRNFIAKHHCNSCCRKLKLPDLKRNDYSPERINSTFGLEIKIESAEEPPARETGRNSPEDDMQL
In words: KINOMEscan at 1 μM, TRPM6. It counts as binding. The following applies: 1000 nM, read-out: Percent Control.
Excerpt: as §2

In the case of `Cc1cccc(-c2cnc3occ(-c4ccc(C(=O)O)c(C5CCCC5)c4)c3c2)c1` [Compound 5], the “plasma concentration / in vivo PK (in words)” value in [1] was “poor in vivo PK”.

For `Cc1cccc(-c2cnc3occ(-c4ccc(C(=O)O)c(C5CCCC5)c4)c3c2)c1` [SGC-CAMKK2-1 (YL-36)], the remaining binding at 1 µM in [2] was 100%; in series [3], 100%; in series [4] it was 86%; in series [5] it was 100%; in series [6] it was 100%; in [7] it was 94%. For the same molecule, the remaining binding at 1 µM came to 93% in [8]; 100% in series [9]; 100% in series [10]; 100% in [11]; 100% in [12]; 88% in series [13]. Moreover, in series [15], the remaining binding at 1 µM was determined as 84%. Further, the “Percent Control” value in series [14] amounted to 100%.

On to `O=C(O)c1ccc(-c2coc3ncc(-c4ccccc4)cc23)cc1Cl` [SGC-CAMKK2-1N (UNC-YL-83)], for which the remaining binding at 1 µM came out at 77% in [16]; 93% in [17]; 100% in series [18]; 93% in series [19]; 100% in series [20]; 93% in series [21]. In addition, the remaining binding at 1 µM in series [22] stood at 100%; in series [23], 80%; in series [24], 68%; in series [25] it was 100%; in series [26], 71%; in [27] it was 100%. The remaining binding at 1 µM worked out at 100% in series [28] and 53% in series [29].

(Values after PMC9856672, “SGC-CAMKK2-1: A Chemical Probe for CAMKK2” (Cells, 2023).)
